From PubChem BioAssay (NCI)
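Exposure lasted 48 hours, with cells grown in 96-well plates and compounds tested at five concentrations. GI50 is the concentration that inhibits growth by half. TGI marks complete inhibition of growth.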

Experiments:
Assay in all cases: inhibition of tumour cell growth, NCI panel, 48 h
[1] = test system: HOP-92 NSCLC
[2] = test system: UO-31 renal
[3] = test system: NCI-H226 lung
[4] = test system: HCT-15 colon
[5] = test system: SW-620 colon
[6] = test system: M14 melanoma
[7] = test system: MDA-MB-435
[8] = test system: SR leukemia
[9] = test system: ACHN renal
[10] = test system: SF-539 CNS
[11] = test system: IGROV1 ovarian
[12] = test system: K-562 leukemia
[13] = test system: HOP-62 NSCLC
[14] = test system: OVCAR-3 ovarian
[15] = test system: U251 CNS
[16] = test system: OVCAR-5 ovarian
[17] = test system: HCC-2998 colon
[18] = test system: 786-0 renal
[19] = test system: OVCAR-4 ovarian
[20] = test system: MALME-3M melanoma
[21] = test system: A549 NSCLC
[22] = test system: SN12C renal
[23] = test system: MCF7 breast
[24] = test system: NCI/ADR-RES ovarian
[25] = test system: EKVX NSCLC
[26] = test system: NCI-H23 lung
[27] = test system: SK-OV-3 ovarian
[28] = test system: MDA-MB-231 breast
[29] = test system: T-47D breast
[30] = test system: CCRF-CEM leukemia
[31] = test system: MOLT-4 leukemia
[32] = test system: TK-10 renal
[33] = test system: HT29 colon
[34] = test system: SK-MEL-28 melanoma
[35] = test system: SK-MEL-5 melanoma
[36] = test system: LOX IMVI melanoma
[37] = test system: UACC-257 melanoma
[38] = test system: CAKI-1 renal
[39] = test system: OVCAR-8 ovarian
[40] = test system: RPMI-8226 leukemia
[41] = test system: A498 renal
[42] = test system: KM12 colon
[43] = test system: RXF 393 renal
[44] = test system: PC-3 prostate
[45] = test system: SK-MEL-2 melanoma
[46] = test system: NCI-H522 lung
[47] = test system: SNB-75 CNS
[48] = test system: NCI-H460 lung
[49] = test system: HL-60(TB) leukemia
[50] = test system: SF-268 CNS
[51] = test system: DU-145 prostate
[52] = test system: SNB-19 CNS
[53] = test system: SF-295 CNS
[54] = test system: UACC-62 melanoma
[55] = test system: BT-549 breast
[56] = test system: HS 578T breast
[57] = test system: HCT-116 colon
[58] = test system: COLO 205 colon

`O=S(=O)(Nc1ccccc1Cl)c1ccc(-c2cnc(C3CC3)o2)cc1` was tested, and the GI50 [1] was 0.324 µM, the TGI [1] was 7.28 µM and the GI50 [2] was 0.832 µM. The TGI [2] was greater than 77.1 µM, the GI50 [3] was 4.84 µM and the TGI [3] was greater than 68.4 µM. The GI50 [4] was 0.282 µM, the TGI [4] was greater than 100 µM and the GI50 [5] was 0.312 µM. It also gave a TGI [5] greater than 100 µM, a GI50 [6] of 0.279 µM and a TGI [6] greater than 100 µM. For the same molecule, the GI50 [7] was 0.0552 µM, the TGI [7] was 0.388 µM and the GI50 [8] was 0.0684 µM. For the same molecule, the TGI [8] was greater than 55.7 µM, the GI50 [9] was 0.744 µM and the TGI [9] was greater than 100 µM. The GI50 [10] was 0.332 µM, the TGI [10] was 2.33 µM and the GI50 [11] was 0.68 µM. For the same molecule, the TGI [11] was greater than 100 µM, the GI50 [12] was 0.0845 µM and the TGI [12] was greater than 100 µM. It also gave a GI50 [13] of 0.501 µM, a TGI [13] greater than 100 µM and a GI50 [14] of 0.303 µM. It also gave a TGI [14] of 15.7 µM, a GI50 [15] of 0.583 µM and a TGI [15] greater than 100 µM. It also gave a GI50 [16] of 2.44 µM, a TGI [16] greater than 100 µM and a GI50 [17] of 2.54 µM. For the same molecule, the TGI [17] was 33.3 µM, the GI50 [18] was 0.809 µM and the TGI [18] was greater than 85.1 µM. The GI50 [19] was 4.21 µM, the TGI [19] was greater than 100 µM and the GI50 [20] was 0.472 µM. The TGI [20] was 44.3 µM, the GI50 [21] was 0.867 µM and the TGI [21] was 99.7 µM. The GI50 [22] was 0.797 µM, the TGI [22] was greater than 100 µM and the GI50 [23] was 0.284 µM. For the same molecule, the TGI [23] was greater than 100 µM, the GI50 [24] was 0.314 µM and the TGI [24] was 65.9 µM. For the same molecule, the GI50 [25] was 4.35 µM, the TGI [25] was greater than 89.1 µM and the GI50 [26] was 1.78 µM. It also gave a TGI [26] greater than 100 µM, a GI50 [27] of 1.23 µM and a TGI [27] greater than 67.7 µM. The GI50 [28] was 1.92 µM, the TGI [28] was 84.9 µM and the GI50 [29] was 0.464 µM. It also gave a TGI [29] greater than 54.7 µM, a GI50 [30] of 0.388 µM and a TGI [30] greater than 100 µM. For the same molecule, the GI50 [31] was 0.71 µM, the TGI [31] was greater than 63.6 µM and the GI50 [32] was 11.8 µM. It also gave a TGI [32] greater than 100 µM, a GI50 [33] of 0.331 µM and a TGI [33] greater than 41.2 µM. For the same molecule, the GI50 [34] was 3.34 µM, the TGI [34] was greater than 100 µM and the GI50 [35] was 0.453 µM. For the same molecule, the TGI [35] was 15.9 µM, the GI50 [36] was 0.79 µM and the TGI [36] was greater than 90.8 µM. It also gave a GI50 [37] of 19.2 µM, a TGI [37] of 75 µM and a GI50 [38] of 0.321 µM. For the same molecule, the TGI [38] was 82 µM, the GI50 [39] was 1.22 µM and the TGI [39] was greater than 100 µM. It also gave a GI50 [40] of 0.541 µM, a TGI [40] of 22.7 µM and a GI50 [41] of 0.0873 µM. For the same molecule, the TGI [41] was 0.608 µM, the GI50 [42] was 0.393 µM and the TGI [42] was 32.4 µM. It also gave a GI50 [43] of 0.266 µM, a TGI [43] of 1.18 µM and a GI50 [44] of 0.521 µM. For the same molecule, the TGI [44] was greater than 100 µM, the GI50 [45] was 0.64 µM and the TGI [45] was greater than 100 µM. It also gave a GI50 [46] of 0.26 µM, a TGI [46] of 15.6 µM and a GI50 [47] of 0.139 µM. The TGI [47] was 0.599 µM, the GI50 [48] was 0.397 µM and the TGI [48] was 15.6 µM. It also gave a GI50 [49] of 0.274 µM, a TGI [49] of 0.886 µM and a GI50 [50] of 12.4 µM. For the same molecule, the TGI [50] was greater than 100 µM, the GI50 [51] was 0.94 µM and the TGI [51] was greater than 100 µM. For the same molecule, the GI50 [52] was 0.642 µM, the TGI [52] was greater than 100 µM and the GI50 [53] was 0.438 µM. For the same molecule, the TGI [53] was 15.3 µM, the GI50 [54] was 0.402 µM and the TGI [54] was 47.6 µM. It also gave a GI50 [55] of 2.12 µM, a TGI [55] of 69.3 µM and a GI50 [56] of 0.346 µM. The TGI [56] was greater than 94.9 µM, the GI50 [57] was 0.401 µM and the TGI [57] was greater than 75.5 µM. The GI50 [58] was 0.489 µM and the TGI [58] was 5.58 µM.
`S=C(Nc1ccc(Br)cc1)Nc1ccc(Br)cc1` showed a GI50 [1] of 2.72 µM, a TGI [1] of 9.13 µM and a GI50 [2] of 12.7 µM. The TGI [2] was greater than 100 µM, the GI50 [3] was greater than 100 µM and the TGI [3] was greater than 100 µM. It also gave a GI50 [4] of 3.35 µM, a TGI [4] greater than 100 µM and a GI50 [5] of 4.43 µM. The TGI [5] was greater than 100 µM, the GI50 [6] was 8.3 µM and the TGI [6] was greater than 100 µM. The GI50 [7] was 6.04 µM, the TGI [7] was greater than 100 µM and the GI50 [8] was 6.96 µM. The TGI [8] was greater than 100 µM, the GI50 [9] was 4.25 µM and the TGI [9] was greater than 100 µM. For the same molecule, the GI50 [10] was greater than 100 µM, the TGI [10] was greater than 100 µM and the GI50 [11] was 7.41 µM. It also gave a TGI [11] greater than 100 µM, a GI50 [12] of 3.62 µM and a TGI [12] greater than 100 µM. The GI50 [13] was 83.9 µM, the TGI [13] was greater than 100 µM and the GI50 [14] was 3.58 µM. The TGI [14] was greater than 100 µM, the GI50 [15] was 8.39 µM and the TGI [15] was greater than 100 µM. The GI50 [16] was greater than 100 µM, the TGI [16] was greater than 100 µM and the GI50 [17] was 5.04 µM. The TGI [17] was greater than 100 µM, the GI50 [18] was 38.5 µM and the TGI [18] was greater than 100 µM. It also gave a GI50 [19] of 7.51 µM, a TGI [19] greater than 100 µM and a GI50 [20] of 11.7 µM. For the same molecule, the TGI [20] was greater than 100 µM, the GI50 [21] was 5.8 µM and the TGI [21] was greater than 100 µM. The GI50 [22] was 9.72 µM, the TGI [22] was greater than 100 µM and the GI50 [23] was 3.87 µM. For the same molecule, the TGI [23] was greater than 100 µM, the GI50 [24] was 4.32 µM and the TGI [24] was greater than 100 µM. The GI50 [25] was 3.72 µM, the TGI [25] was greater than 100 µM and the GI50 [26] was 3.47 µM. It also gave a TGI [26] greater than 100 µM, a GI50 [27] greater than 100 µM and a TGI [27] greater than 100 µM. It also gave a GI50 [28] of 25.5 µM, a TGI [28] greater than 100 µM and a GI50 [29] of 2.99 µM. For the same molecule, the TGI [29] was greater than 100 µM, the GI50 [30] was 6.19 µM and the TGI [30] was greater than 100 µM. For the same molecule, the GI50 [31] was 6.59 µM, the TGI [31] was greater than 100 µM and the GI50 [32] was 5.38 µM. The TGI [32] was greater than 100 µM, the GI50 [33] was 7.22 µM and the TGI [33] was greater than 100 µM. For the same molecule, the GI50 [34] was 49.8 µM, the TGI [34] was greater than 100 µM and the GI50 [35] was 5.4 µM. The TGI [35] was greater than 100 µM, the GI50 [36] was 5.29 µM and the TGI [36] was greater than 100 µM. It also gave a GI50 [37] of 7.86 µM, a TGI [37] greater than 100 µM and a GI50 [38] of 4 µM. For the same molecule, the TGI [38] was greater than 100 µM, the GI50 [39] was 18.2 µM and the TGI [39] was greater than 100 µM. The GI50 [40] was 4.05 µM, the TGI [40] was greater than 100 µM and the GI50 [41] was 5.38 µM. For the same molecule, the TGI [41] was greater than 100 µM, the GI50 [42] was 3.63 µM and the TGI [42] was greater than 100 µM. The GI50 [43] was greater than 100 µM, the TGI [43] was greater than 100 µM and the GI50 [44] was 4.17 µM. The TGI [44] was greater than 100 µM, the GI50 [45] was 7.93 µM and the TGI [45] was greater than 100 µM. It also gave a GI50 [46] of 2.92 µM, a TGI [46] of 98.6 µM and a GI50 [47] of 98.7 µM. For the same molecule, the TGI [47] was greater than 100 µM, the GI50 [48] was 3.69 µM and the TGI [48] was greater than 100 µM. For the same molecule, the GI50 [49] was 5.79 µM, the TGI [49] was greater than 100 µM and the GI50 [50] was 67.8 µM. For the same molecule, the TGI [50] was greater than 100 µM, the GI50 [51] was 6.41 µM and the TGI [51] was greater than 100 µM. For the same molecule, the GI50 [52] was 17.2 µM, the TGI [52] was greater than 100 µM and the GI50 [53] was 2.99 µM. The TGI [53] was greater than 100 µM, the GI50 [54] was 3.52 µM and the TGI [54] was greater than 100 µM. The GI50 [55] was 44.2 µM, the TGI [55] was greater than 100 µM and the GI50 [56] was 85 µM. The TGI [56] was greater than 100 µM, the GI50 [57] was 4.21 µM and the TGI [57] was greater than 100 µM. For the same molecule, the GI50 [58] was 7.82 µM and the TGI [58] was greater than 100 µM.
